Results from patent publication US20140112882A1, “Methods to treat pancreatic inflammation and associated lung injury through regulation of pancreatic interleukin-22 expression” (The Board of Trustees of the Leland Stanford Junior …, priority 2012, published 2014).

How the values were obtained:
[1] = test system: pancreatic IL-22; assay: Pancreatic IL-22 production in mice (flow cytometry of pancreatic leukocytes, ELISA); type: in vivo, Balb/c mice; details: day 3, vs vehicle
Description: (§1) Mice were given PBS or recombinant IL-22 (200 ng/mouse, 1 ng/μl, Miltenyi Biotech) intra-peritoneally at 24 h after onset of CDE-diet-induced acute pancreatitis. For experiments involving anti-IL-22 mAb, mice were treated with 1 μg of either anti-IL-22 or isotype control mAb (R&D Systems) at indicated times. CH-223191 (100 μg/mouse, 0.5 μg/μl, Sigma-Aldrich) was dissolved in DMSO and Biliverdin hydrochloride (35 mg/kg, Frontier Scientific) in 20 mM NaOH adjusted to pH of 7.0. CH-223191, Biliverdin hydrochloride, or vehicle control were used to treat normal mice or mice undergoing AP at indicated times.
Mouse pancreata were isolated and frozen immediately in liquid nitrogen. Total tissue and primary pancreatic acinar cells, isolated as described below, were homogenized in RIPA buffer containing protein inhibitors and analyzed by western blot as described previously (Nakamichi et al., 2005; Xue et al., 2010). […] Supernatant from pancreas homogenate was analyzed using ELISA kit for mouse IL-22 (Biolegend). […]
For surface staining, cells were stained with the following antibodies (Biolegend): AF700 or FITC CD45.2, PE/Cy7-CD3, PE/Cy7-CD19, APC/Cy7-CD4, FITC-CD90, Percp/Cy5.5-CD11b, APC-Sca-1, PB-CD11c, APC/Cy7-NK1.1 and APC-NKp46. […] Flow cytometry data collection was performed on Fortessa LSRII (BD Biosciences) and analyzed using FlowJo software (Tree Star, Inc.).

[2] = test system: CDE-induced acute pancreatitis; assay: CDE-diet-induced acute pancreatitis model; type: in vivo, Balb/c mice
Description: (§2) Mice including Balb/c, C57B6/J and AhR^d were purchased from Jackson laboratory and housed under pathogen-free conditions. All animal experiments were approved by Stanford University institutional animal care and use committees. Acute pancreatitis models. For caerulein-induced pancreatitis, age and sex matched mice were fasted for 12-16 hours. Mice then received 7 hourly intra-peritoneal injections of saline (control) or 50 μg/kg caerulein in saline and followed up to 12 h or indicated times. For the choline-deficient diet supplemented with DL-ethionine (CDE-diet) model of pancreatitis, young female mice (16-20 g) were fasted then fed a choline-deficient diet (Harlan Teklad) supplemented with 0.5% DL-ethionine (Sigma-Aldrich) or normal chow (control group) (Habtezion et al. (2011), Nakamichi et al., 2005).
as §1
Mice were euthanized by CO2 inhalation. Pancreata and other tissues were rapidly removed. Pancreas and lung pieces were immediately fixed in 10% formalin and embedded in paraffin. Fixed tissues were sectioned and stained with hematoxylin and eosin (H&E; performed by Histo-Tec Laboratory). The severity of pancreatitis and lung injury were scored blindly as described previously (Habtezion et al. (2011), Nakamichi et al., 2005). Other pancreas pieces were frozen in Tissue-Tek OCT compound and sectioned for fluorescence staining Immunofluorescence staining for p-STAT3 (Cell Signaling) and DAPI (nuclei) was performed according to manufacturer's guidelines. TUNEL assay was performed according to the manufacturer's instructions (ApopTag® Red In Situ Apoptosis Detection Kit, Millipore).
Blood was collected by intracardiac puncture, and serum was isolated for subsequent lipase level determination by diagnostic laboratory at Stanford University. Lung tissues were collected and MPO assay performed according to manufacture's guidelines (Biovision).
(§3) Mouse pancreata were isolated and frozen immediately in liquid nitrogen. Total tissue and primary pancreatic acinar cells, isolated as described below, were homogenized in RIPA buffer containing protein inhibitors and analyzed by western blot as described previously (Nakamichi et al., 2005; Xue et al., 2010). IL-22RA1 and cleaved caspase-3 antibodies were purchased from Abcam and Cell Signaling, respectively. Supernatant from pancreas homogenate was analyzed using ELISA kit for mouse IL-22 (Biolegend).

[3] = test system: STAT3; assay: STAT3 phosphorylation in tissues after systemic rIL-22 (western blot, immunofluorescence); type: in vivo, Balb/c mice; details: rIL-22 200 ng/mouse systemically; 1 h; compared to other tissues
Description: as §1
(§4) Mice were euthanized by CO2 inhalation. Pancreata and other tissues were rapidly removed. […] The severity of pancreatitis and lung injury were scored blindly as described previously (Habtezion et al. (2011), Nakamichi et al., 2005). Other pancreas pieces were frozen in Tissue-Tek OCT compound and sectioned for fluorescence staining Immunofluorescence staining for p-STAT3 (Cell Signaling) and DAPI (nuclei) was performed according to manufacturer's guidelines. […]
Mouse pancreata were isolated and frozen immediately in liquid nitrogen. Total tissue and primary pancreatic acinar cells, isolated as described below, were homogenized in RIPA buffer containing protein inhibitors and analyzed by western blot as described previously (Nakamichi et al., 2005; Xue et al., 2010). […]

[4] = test system: primary pancreatic acinar cells; assay: Spontaneous apoptosis of primary pancreatic acinar cells in vitro (cleaved caspase-3 western blot); type: cell-based, mice; details: rIL-22 for 2 h or 4 h in vitro; vs PBS
Description: as §3
(§5) Mice were sacrificed and pancreata removed carefully by trimming fat and mesentery. Dispersed pancreatic acinar cells were isolated using a collagenase digestion method described previously (Menozzi et al. 1990). Isolated primary pancreatic acinar cells were treated in vitro with either rIL-22 or vehicle control (PBS) for up to 4 hours following isolation. Pancreatic leukocytes were prepared with minor modifications of the method developed by Hawkins (Hawkins et al., 1996). Briefly, 3-4 pancreata were pooled together and minced with scissors, then washed twice with buffer A (HBSS+10% FCS). The tissue was resuspended in buffer A containing 2 mg/ml collagenase type IV (Sigma-Aldrich) and incubated in a shaker at 37° C. for 15 min. […]

[5] = test system: pancreatic acinar cells; assay: pSTAT3 induction in isolated primary pancreatic acinar cells (western blot); type: cell-based, Balb/c mice; details: 10 ng/ml for 0-30 min; 0-100 ng/ml for 15 min
Description: as §3, §5

[6] = test system: caerulein-induced acute pancreatitis; assay: Caerulein-induced acute pancreatitis in AhR non-responsive (AhR^d) mice; type: in vivo, AhR^d mice (C57BL/6 background); details: rIL-22 single dose 200 ng/mouse, vs vehicle control
Description: as §2
as §4, with “removed. Pancreas and lung pieces were immediately fixed in 10% formalin and embedded in paraffin.” for “removed.”

[7] = test system: RegIII genes, SAA3, β-defensin2, IL-22RA1 in pancreas; assay: Quantitative PCR of pancreas mRNA 24 h after rIL-22; type: in vivo, Balb/c mice; details: 200 ng/mouse i.p., vs PBS
Description: Pancreatic tissue was lysed with Trizol reagent (Invitrogen) for total RNA preparation according to manufacturer's instructions. Briefly, cDNA was generated using GoScript reverse transcription system (Promega). Quantitative PCR was performed with an ABI-7900 Sequence Detection System (Applied Biosystems) using designed specific TaqMan probes and primers as follows: RegIIIβ (Forward, 5′-[…]-3′; Reverse, 5′-[…]-3′; Probe, 5′-[…]-3′); RegIIIγ (Forward, 5′-[…]-3′; Reverse, 5′-TGGGTTCATAGCCCAGTGT-3′; Probe, 5′-[…]-3′); β-defensin2 (Forward, 5′-[…]-3′; Reverse, 5′-[…]-3′; Probe, 5′-[…]-3′); SAA3 (Forward, 5′-[…]-3′; Reverse, 5′-[…]-3′; Probe, 5′-[…]-3′); IL-22RA1 (Forward, 5′-[…]-3′; Reverse, 5′-[…]-3′; Probe, 5′-[…]-3′).

[8] = 200 ng/mouse 24 h after CDE feeding, 60 h, vs PBS

Cc1ccccc1N=Nc1ccc(NC(=O)c2ccnn2C)c(C)c1 [CH-223191, 2-methyl-2H-pyrazole-3-carboxylic acid (2-methyl-4-o tolylazo-phenyl)-amide, reference compound]
Frequency of IL-22-expressing leukocytes in the pancreas ([1]; 100 μg/mouse on two consecutive days, flow cytometry and ELISA): markedly decreased | Mortality ([2]; pretreated before CDE feeding, by day 3, relative to control treated mice): increased mortality | Severity of acute pancreatitis (serum lipase, H&E, histologic score) ([2]; pretreated daily for two days before CDE feeding, analyzed at day 2, vs vehicle): considerably more severe acute pancreatitis

C=CC1=C(C)/C(=C/C2=NC(=C\c3[nH]c(/C=C4\NC(=O)C(C)=C4C=C)c(C)c3CCC(=O)O)/C(CCC(=O)O)=C2C)NC1=O [biliverdin, reference compound]
Pancreatic IL-22 ([1]; biliverdin 35 mg/kg on day 1 and 2, ELISA and flow cytometry): significant increase | Protection against acute pancreatitis (serum lipase, histologic assessment) ([2]; single dose 24 h after CDE-diet feeding, sacrificed at 60 h, vs vehicle): protected against acute pancreatitis

rIL-22: recombinant IL-22 (Miltenyi Biotech), cytokine of the IL-10 family
STAT3 activation (p-STAT3) in the pancreas [3]: Significant STAT3 activation | Spontaneous apoptosis of acinar cells (cleaved caspase-3) [4]: delayed spontaneous apoptosis | pSTAT3 induction in pancreatic acinar cells [5]: induced by rIL-22 in pancreatic acinar cells in a time and dose dependent manner | Pancreatic injury (H&E) [6]: decrease | Serum lipase levels [6]: decrease | IL-22RA1 mRNA expression in pancreas [7]: no significant induction | RegIIIβ (PAP1) mRNA expression in pancreas [7]: stimulated the expression | RegIIIγ (PAP3) mRNA expression in pancreas [7]: stimulated the expression | SAA3 mRNA expression in pancreas [7]: no significant induction | β-defensin2 mRNA expression in pancreas [7]: no significant induction | Blinded lung histology score ([2]; 200 ng/mouse 24 h after CDE feeding, 60 h, mean±SEM, P=0.028 vs control): 1.6±0.24 | Lung myeloperoxidase (MPO) levels [2, 8]: significantly reduced | Morphologic evidence of lung injury [2, 8]: significantly reduced | Pancreatitis severity, histologic examination and blinded scoring of pancreata ([2]; 200 ng/mouse 24 h after CDE feeding, 60 h, vs vehicle): less severe pancreatitis | Serum lipase levels ([2]; 200 ng/mouse i.p. 24 h after CDE feeding, harvest at 60 h, vs PBS): significantly lower | Pancreatic IL-22 level by ELISA after systemic administration ([2]; 60 h following CDE feeding): Effective reconstitution | Mortality ([2]; rIL-22 24 h after CDE feeding, followed to 72 h, vs PBS): lower mortality | Apoptosis in pancreas (TUNEL assay) ([2]; rIL-22 24 h after CDE feeding, pancreas at 60 h): significantly reduced apoptosis
